Patent US8258119B2, “Anti-cancer drugs and uses relating thereto for metastatic malignant melanoma and other cancers” (Kasina Laila Innova Pharmaceuticals, priority 2008, dated 2012)
Converted amounts (≈) assume the structure as drawn.

Assays:
[1] = test system: B16F0 mouse melanoma cells; assay: MTT cell proliferation assay in B16F0 cells; assay type: cell-based; conditions: B16F0, 72 h, 3 days, read-out: 50% of inhibitory concentration, IC50 in B16 F0 cells
Procedure: MTT [3-(4,5-dimethylthiazol-2-yl)-2,5-diphenyltetrazolium bromide] incorporation based cell proliferation assay was performed using standard procedure with some modifications (38). The cytotoxic efficacy of the test compounds were evaluated in human malignant melanoma A2058 cells by MTT cell proliferation assay kit (Roche Applied Sciences, Germany). The assay was carried out according to the instruction provided by the vendor. Briefly, equal numbers of cells was plated in 96-well flat-bottomed plates in 100 μl of medium and were exposed to either DTIC or its derivative compounds at various concentrations up to 150 μg/ml for a period of three days. Vehicle control culture wells received only a maximum of 0.5% DMSO. […] After complete solubilization of the formazan crystals the absorbance was read at 540 nm in a microplate reader (BioRad, USA). […]
The comparative anti-tumor growth potential of DTIC and Compound 6 was further tested in B16F0 mouse melanoma cells and A375 human melanoma cells by using MTT based cell proliferation assay following the methodology described earlier (Example 19). […] After adding the MTT reagent, the cells were solubilized and the intracellular formazan formation was calorimetrically read at 540 nm in a microplate reader (BioRad, USA). […]

[2] = test system: B16F0 mouse melanoma cells; assay: LDH leakage cytotoxicity assay in B16F0 cells; assay type: cell-based; conditions: treatment concentration 100 μg/ml
Procedure: (§1) From the data obtained from the MTT assay (Table J), compound 1, compound 6 and compound 13 have been selected and their cytotoxicity potential has been further validated in LDH leakage assay. […] Cytotoxicity potential of DTIC and its derivative compounds were evaluated by measuring the leaked lactate dehydrogenase (LDH) into the culture supernatant (LDH Cytotoxicity Detection Roche Applied Sciences, Germany). The leaked LDH is directly proportional to the cell damage done by the cytotoxic compounds. In brief, cells were treated with test compounds at various concentrations and incubated for 48 h. Vehicle control culture wells received only a maximum of 0.5% DMSO. The cell free culture supernatants were mixed with catalyst and dye solution and allowed to incubate for 15 min at room temperature. Finally, the reaction was stopped and the optical density was measured at 492 nm in a microplate reader (BioRad, USA). […]
(§2) Comparative cytotoxicity potential of DTIC and Compound 6 on B16F0 mouse melanoma cells and A375 human melanoma cells were further evaluated by measuring the leaked lactate dehydrogenase (LDH) into the culture supernatant (LDH Cytotoxicity Detection Kit^Plus, Roche Applied Sciences, Germany), following the methodology described earlier (Example 20). […]

[3] = test system: MCF-7 human breast tumor cells; assay: MTT cell proliferation assay in MCF-7 cells; assay type: cell-based; conditions: MCF7, read-out: 50% of inhibitory concentration, IC50 MCF-7
Procedure: (§3) MTT [3-(4,5-dimethylthiazol-2-yl)-2,5-diphenyltetrazolium bromide] incorporation based cell proliferation assay was performed using standard procedure with some modifications (38). The cytotoxic efficacy of the test compounds were evaluated in human malignant melanoma A2058 cells by MTT cell proliferation assay kit (Roche Applied Sciences, Germany). The assay was carried out according to the instruction provided by the vendor. Briefly, equal numbers of cells was plated in 96-well flat-bottomed plates in 100 μl of medium and were exposed to either DTIC or its derivative compounds at various concentrations up to 150 μg/ml for a period of three days. Vehicle control culture wells received only a maximum of 0.5% DMSO. Thereafter, 0.5 mg/ml of MTT reagent was added to each well and the microplate was incubated further for 4 h at 37° C. in presence of 5% CO2. Finally, the cells were solubilized by adding solubilizing solution and allowed to incubate at 37° C. overnight. After complete solubilization of the formazan crystals the absorbance was read at 540 nm in a microplate reader (BioRad, USA). The results (mean OD±SD) obtained from quadruplicate wells were used in calculation to determine the inhibition of cell proliferation (50% inhibitory concentration, IC50) of the test compounds.
(§4) Anti-tumor growth potential of Compound 1 and Compound 6 were evaluated in MCF-7 human breast tumor cells, MIA-PaCa2 human pancreas tumor cells and DU145 human prostate tumor cells by using MTT based cell proliferation studies as described earlier (example 19). The results (mean OD±SD) obtained from quadruplicate wells were used in calculation to determine the inhibition of cell proliferation (50% of inhibitory concentration, IC50) of the test compounds (Table 4).

[4] = test system: A375 human melanoma cells; assay: LDH leakage cytotoxicity assay in A375 cells; assay type: cell-based; conditions: treatment concentration 100 μg/ml
Procedure: as §1, §2

[5] = test system: MIA-PaCa2 human pancreas tumor cells; assay: MTT cell proliferation assay in MIA-PaCa2 cells; assay type: cell-based; conditions: MIA PaCa-2, read-out: 50% of inhibitory concentration, IC50 MIA-PaCa2
Procedure: as §3, §4

[6] = test system: Human umbilical vein endothelial cells (HUVEC); assay: In vitro capillary formation assay; assay type: cell-based; conditions: HUVEC on Cultrex, 16 hours
Procedure: In vitro capillary formation assay was performed with Human umbilical vein endothelial cells (HUVEC), cultured on 10 mg/ml basement membrane extract (BME-Cultrex®, R&D Systems, USA) bed. The protocol of in vitro endothelial tube formation assay was the same as described earlier with some modifications (44). Briefly, four hundred microliters of Cultrex was coated at 4° C. in each well of 24-well culture plate and allowed to gel at 37° C. for 1 h. HUVECs were plated at a density of 7.5×10^4 cells per well with […] of DMEM supplemented with 10% fetal bovine serum and 4.5 g/l D-glucose. The cells were then treated with either DTIC or Compound 6 at desired concentration as indicated for 16 hours. Vehicle control cultures received only 0.1% DMSO. Pictures were taken under a Nikon Eclipse TS 100 microscope equipped with a Nikon Coolpix camera.

B16 F0 melanoma = B16 F0 melanoma xenograft model of C57B6J mice; assay type: in vivo; conditions: for dose response of tumor growth inhibition: two dose levels (50 and 100 mg/kg), intra-peritoneal
Procedure: […] mice of 6 weeks age (body weight 18-22 g) were purchased from National Institute of Nutrition (NIN), Hyderabad (India). Animals study protocols were approved by Institutional Ethics Committee (IAEC). All the studies were performed in compliance with the Committee for the Purpose of Control and Supervision of Experiments on Animals (CPCSEA) guidelines and OECD guidelines. Animals were allowed free access to standard feed and provided charcoal filtered and UV exposed water ad libitum. The animals were maintained at a controlled temperature (24-26° C.), humidity (45-70%), and 12 h/12 h of light/dark cycle. To induce the melanoma tumor formation, sub-confluent B16F0 cells were harvested by brief trypsinization and 1×10^6 cells were injected subcutaneously in 0.2 ml phosphate-buffered saline. Drug treatment was started after development of palpable tumors (3-5 days after implantation of the cells). […] After fourteen days of treatment, the animals were sacrificed by CO2 inhalation and tumors were excised and weighed.

[7] = test system: A2058, human malignant melanoma cells; assay: MTT cell proliferation assay in A2058 cells; assay type: cell-based; conditions: A2058, 72 h, three days exposure
Procedure: as §3

CN(C)/N=N/c1ccsc1C(=O)O [Compound 6, 3-[(dimethylamino)diazenyl]thiophene-2-carboxylic acid]
IC50 [1]: 57.6 µg/mL (≈ 289 µM)
% increase in LDH secretion with respect to vehicle treated control in B16 F0 cells [2]: 61.5%
IC50 [3]: 91.7 µg/mL (≈ 460 µM)
% increase in LDH secretion with respect to vehicle treated control in A375 cells [4]: 331%
IC50 [5]: 81.9 µg/mL (≈ 411 µM)
capillary formation [6]: inhibition of capillary formation in a dose dependent manner
anti-tumor activity (B16 F0 melanoma; daily intra-peritoneal, fourteen days, tumor weight): better anti-tumor activity than DTIC
dose response of tumor growth inhibition (B16 F0 melanoma): dose response inhibition at the two dose levels tested
IC50 [7]: 53.6 µg/mL (≈ 269 µM)

CN(C)/N=N/c1[nH]cnc1C(N)=O [DTIC, 5-(3,3-dimethyl-1-trizeno)-imidazole-4-carboxamide, reference compound]
IC50 [1]: 360 µg/mL (≈ 1980 µM)
% increase in LDH secretion with respect to vehicle treated control in B16 F0 cells [2]: 5.7%
IC50 [3]: 135 µg/mL (≈ 742 µM)
% increase in LDH secretion with respect to vehicle treated control in A375 cells [4]: 246%
IC50 [5]: 203 µg/mL (≈ 1110 µM)
capillary formation [6]: promoted capillary formation
dose response of tumor growth inhibition (B16 F0 melanoma): failed to show statistically significant dose response
IC50 [7]: 68.1 µg/mL (≈ 374 µM)
